# Reference: patent US8784910B2, “Antimicrobial compositions” (Lonza Inc., priority 2002, dated 2014)
# What was measured:
# [1] = test system: S. aureus (ATCC #6538), P. aeruginosa (ATCC #9027), and E. coli (ATCC #8739); experiment: Mixed bacterial challenge of preserved anionic protein shampoo (Examples 4 and 7); type: cell-based; settings: for Qb: concentration alone required for 100% retardation of the bacteria
# Procedure: Each anionic shampoo sample in Table 3 below was tested as follows. A standardized mixed bacterial solution was prepared according to the following procedure. 3 agar stabs of S. aureus (ATCC #6538), P. aeruginosa (ATCC #9027), and E. coli (ATCC #8739) were separately incubated at about 35 EC for about 24 hours. Each stab was then washed with 3 mL of sterile 0.85% saline solution. The washes of the 3 stabs were pooled together to form an organism mixture. The absorbance of the organism mixture at 530 nm was adjusted to about 1.00 by adding saline. The spectrometer was calibrated with a saline blank. A 5 mL aliquot of the organism mixture was mixed together to produce the standardized mixed bacterial solution. Then, 40 g of each shampoo sample was inoculated with 0.2 mL of the standardized mixed bacterial solution and mixed. 1 g of the mixture was added to a sterile 20×150 mm screw cap test tube.
# 9 mL of sterile D/E neutralizer broth was added to the test tube and mixed to form a 10^−1 dilution. Serial dilutions were prepared through to a 10^−6 dilution with phosphate buffered water. The serial dilutions were plated onto Tryptic Soy Agar and incubated for 2 days at about 35 EC. Bacteria counts were performed after 0, 7, and 14 days.
# The anionic protein shampoo composition was comprised of 35% by weight of sodium lauryl ether sulfate; 25% by weight of triethanolamine lauryl sulfate; 3% by weight coconut diethanolamide (cocamide DEA); 1% by weight of hydrolyzed collagen, available as Polypro 5000™ from Hormel Foods of Austin, Minn.; and 36% by weight of deionized water.
# The cinnamaldehyde and other preservative containing samples were prepared by mixing the appropriate amounts of the preservatives and the aforementioned anionic protein shampoo composition and heating the mixture to about 50 EC for about 15 minutes.
# Synergism for the cinnamaldehyde/Glydant 2000™ solutions in Table 8 against S. aureus, P. aeruginosa, and E. coli was calculated by the method described in C. E. Kull et al., A Mixtures of Quaternary Ammonium Compounds and Long-chain Fatty Acids as Antifungal Agents@, Applied Microbiology, 9:538-541 (1961). The synergism value (QA/Qa+QB/Qb) in Table 7 was determined. […] Qa is the concentration of cinnamaldehyde alone (in percent by weight) required to yield 100% retardation of the bacteria. QB is the concentration of Glydant 2000™ (in percent by weight) in the mixture, which yielded 100% retardation of the bacteria. Qb is the concentration of Glydant 2000™ alone (in percent by weight) required to yield 100% retardation of the bacteria.
# When the value of (QA/Qa+QB/Qb) is less than one, the mixture is synergistic. Values for (QA/Qa+QB/Qb) of 1 and greater than 1, represent an additive effect and an antagonistic effect, respectively.
# [2] = test system: Staphylococcus aureus (ATCC #6538); experiment: Minimum Inhibitory Concentration (MIC), autodilutor, nutrient broth, 96 well plates (Example 8); type: cell-based; settings: Staphylococcus aureus, ATCC6538; 72 hours at 32 degree Celsius, approximately 10^6 cfu/g, visual turbidity; read-out: MIC for S. Aureus
# Procedure: The Minimum Inhibitory Concentration (MIC) of the preservative mixtures was tested. The MIC is the lowest concentration of an ingredient that will inhibit the growth of an organism. This study was conducted using the Hamilton Micro Lab AT Plus Autodilutor Liquid handling System. The programs for the auto-dilutor were based on Lonza's Standard Application Method SAPM#412-01-1. The Hamilton Autodilutor was used to dilute the starting concentrations of the preservative combination by 50% using nutrient broth in 96 well micro titer plates and also to inoculate the microorganism in the test samples. This preservatives tested were Isocil™ (a blend of methyl isothiazolinone and methyl-chloro-isothiazolinone), Benzocil™ (benzisothiazolinone) and Lonzagard™ (benzethonium chloride), all of which are available from Lonza Inc. of Fair Lawn, N.J., in various concentrations and combinations with cinnamaldehyde. Controls were also included in each test plate. […] Results were determined by checking for growth in the test samples versus the control wells on each plate (visual determination of turbidity in the wells). […] Synergism values for the Isocil™/cinnamaldehyde and Benzocil™/cinnamaldehyde combinations were calculated from the MIC values reported in Table 11 by the method described in Kull, supra, referred to above, and are set forth in Tables 12 and 13, below.
smiles,measurement,setting,value
"O=CC=Cc1ccccc1 [Cinnamaldehyde, cinnamaldehyde]","S. aureus, P. aeruginosa, and E. coli Day 0","[1]; 0.05% in shampoo, Day 0, Example 7 Table 8",3.0 × 10^6 cfu/g
same,"S. aureus, P. aeruginosa, and E. coli Day 7","[1]; 0.05% in shampoo, Day 7, Example 7 Table 8",6.5 × 10^6 cfu/g
same,"S. aureus, P. aeruginosa, and E. coli Day 14","[1]; 0.05% in shampoo, Day 14, Example 7 Table 8",1.0 × 10^7 cfu/g
same,"S. aureus, P. aeruginosa, and E. coli Day 0","[1]; 0.10% by weight in shampoo, Day 0, Table 3",3.0 × 10^7 cfu/g
same,"S. aureus, P. aeruginosa, and E. coli Day 7","[1]; 0.10% by weight in shampoo, Day 7, Table 3",1.0 × 10^1 cfu/g
same,"S. aureus, P. aeruginosa, and E. coli Day 14","[1]; 0.10% by weight in shampoo, Day 14, Table 3",<10 cfu/g
same,"S. aureus, P. aeruginosa, and E. coli Day 0","[1]; 0.10% in shampoo, Day 0, Example 7 Table 8",3.0 × 10^6 cfu/g
same,"S. aureus, P. aeruginosa, and E. coli Day 7","[1]; 0.10% in shampoo, Day 7, Example 7 Table 8",1.0 × 10^1 cfu/g
same,"S. aureus, P. aeruginosa, and E. coli Day 14","[1]; 0.10% in shampoo, Day 14, Example 7 Table 8",<10 cfu/g
same,"S. aureus, P. aeruginosa, and E. coli Day 0","[1]; 0.20% by weight in shampoo, Day 0, Table 3",3.0 × 10^7 cfu/g
same,"S. aureus, P. aeruginosa, and E. coli Day 7","[1]; 0.20% by weight in shampoo, Day 7, Table 3",<10 cfu/g
same,"S. aureus, P. aeruginosa, and E. coli Day 14","[1]; 0.20% by weight in shampoo, Day 14, Table 3",<10 cfu/g
same,"S. aureus, P. aeruginosa, and E. coli Day 0","[1]; 0.25% by weight in shampoo, Day 0, Table 3",3.0 × 10^7 cfu/g
same,"S. aureus, P. aeruginosa, and E. coli Day 7","[1]; 0.25% by weight in shampoo, Day 7, Table 3",<10 cfu/g
same,"S. aureus, P. aeruginosa, and E. coli Day 14","[1]; 0.25% by weight in shampoo, Day 14, Table 3",<10 cfu/g
same,Qb,[1]; For Day 7,0.1%
same,Qb,[1]; For Day 14,0.05%
same,MIC,[2],125 µg/mL
